Experimental data published in patent US20050043262A1, “Novel specific inhibitor of the cyclin kinase inhibitor p21Waf1/Cip1 and methods of using the inhibitor” (priority 2000, published 2005).

Tests used:
A431 cells = assay: [3H]thymidine incorporation (DNA synthesis) in A431 cells; assay type: cell-based, human; details: PMA 100 ng/ml
Method: FIG. 9A-D are bar graphs showing Antisense p21^Waf1/Cip1 oligodeoxynucleotide has no significant effect DNA synthesis in PMA-inhibitable A431 cells, as described in Example II, infra. […] A431 cells were placed in serum-free medium overnight and then stimulated with (A) PDGF-BB (30 ng/ml), (B) 10% serum-containing medium, or (C) PDGF-BB or PMA (100 ng/ml) for another 8 hours before [^3H]-thymidine was added for overnight incubation. (D) A10 VSM cells were transfected with sense and antisense p21^Waf1/Cip1 oligonucleotides as above and treated similarly to (B). DNA synthesis was assessed by [^3H]-thymidine incorporation and is expressed as mean ±s.e.m. of three wells per data point. The absolute counts differ between experiments due to different confluency of the cells. The experiments shown are representative of two separate experiments.
Cell culture and DNA synthesis: Cultures of A10 and A431 cells were obtained from American Type Culture Collection (Rockville Md), were maintained as described (Weiss et al. 1998, Am. J. Physiol. 274, C1521-C1529), and were used between passages 15 and 24 or 25 and 35, respectively. The cells were growth-arrested by placing them in serum-free quiescence medium, exposed to growth factors as indicated, and [^3H]thymidine incorporation assessed as previously described (Weiss and Nuccitelli, 1992, J. Biol. Chem. 267, 5608-5613).
This A431 data is in contrast with that obtained in a variety of VSM cell lines, where cell growth was inhibited by similar oligodeoxynucleotide concentrations in cell stimulated with both PDGF-BB and serum (FIG. 9d).

p21^Waf1/Cip1 [1] = assay: p21 protein level by Western blot in A10 VSM cells; assay type: cell-based, rat
Method: (§1) Western blots: Cells were grown to confluence in 6 cm culture dishes and serum deprived. After transfection and or treatment with appropriate agonist, the cells were washed with phosphate-buffered saline and lysed in lysis buffer and the supernatant was Western blotted as described (Weiss et al., 1998 Am. J. Physiol., 274, p. C1521-C1529).
To determine whether antisense transfection with p21^Waf1/Cip1 antisense oligonucleotides indeed decreases p21^Waf1/Cip1 protein levels, p21^Waf1/Cip1 levels after antisense transfection were examined employing the fact that PMA is a potent inducer of p21^Waf1/Cip1 (Huang et al., 1995 Proc. Natl. Acad. Sci. U.S.A., 92, p. 4793-4797; Michieli et al., 1994 Cancer Res., 54, p. 3391-3395). Since p21^Waf1/Cip1 protein levels were induced in VSM cells between 2 and 6 hours after PMA stimulation (FIG. 4), the p21^Waf1/Cip1 levels in transfected cells after similar times of PMA stimulation were examined. […] There was no effect of the p21^Waf1/Cip1 sense (SEQ. ID NO.:2) control oligodeoxynucleotide on cellular p21^Waf1/Cip1 levels (compare with FIG. 4).
To check for specificity of protein inhibition by the antisense p21^Waf1/Cip1 oligodeoxynucleotide (SEQ. ID NO.: 1), protein levels of p21^Waf1/Cip1 and p27^Kip1 after transfection with antisense p21^Waf1/Cip1 oligodeoxynucleotide (SEQ. ID NO.:1) were examined. In these experiments the ability of antisense oligodeoxynucleotides (SEQ. ID NO.:1) to inhibit maximally stimulated CKI expression (see FIG. 4) was assessed. The cells were stimulated with PMA for 4 hours at various times after overnight serum starvation.
(§2) Western blots: Cells were grown to confluence in 6 cm culture dishes and serum deprived. After transfection and or treatment with appropriate agonist, conditioned medium was removed and saved and the cells were washed with phosphate-buffered saline and lysed in lysis buffer. Both supernatant and cell lysate were normalized to the lysate protein concentrations and Western blotted as described (Weiss R H, et al. Am J Physiol 274:C1521-C1529, 1998).
To confirm that p21 levels were increased after exposure to ionizing radiation, and that the oligonucleotides inhibit this phenomenon in A10 cells, p21 protein levels under these conditions were assayed. […] With the exception of the initial decrease in p21 levels at ½ and 1 hours, the results with the control oligonucleotides were similar to that observed in non-transfected cells.
Adriamycin is a prototypical DNA damaging agent used in the treatment of a variety of cancers. The predominantly G2 arrest seen after Adriamycin treatment has been associated with an increase in p21 levels in some cell lines (Siu W Y, et al. FEBS Lett 461:299-305, 1999). In order to determine whether similar augmentation of p21 is seen in A10 VSM cells and whether the antisense p21 oligonucleotide is inhibiting this response, these cells were treated with Adriamycin either with or without first transfecting the cells with the antisense and control oligonucleotides. Confluent VSM cells were transfected with antisense oligonucleotide to p21 or random sequence control oligonucleotide as described above. After 24 hours, the cells were exposed to Adriamycin (500 ng/ml), lysed at the indicated times after exposure, and Western blotted with p21 antibody.
Using a random sequence phosphorothioate oligodeoxynucleotide (SEQ. ID NO.:3) as a control, the effect of the antisense oligodeoxynucleotide to p21 (400 nM) on p21 and α-actin protein expression in A10 VSM cells, was examined. The lysates, normalized for protein content, were Western blotted with either p21 or α-actin antibody.

p21^Waf1/Cip1 [2] = assay: PMA-induced p21 level by Western blot in A431 cells; assay type: cell-based, human; details: 200 nM oligodeoxynucleotide, PMA 100 ng/ml up to 6 hours
Method: as §1, with “and Nuccitelli, 1992” for “et al., 1998 Am.”, “Biol. Chem., 267,” for “Physiol., 274,”, “5608-5613).” for “C1521-C1529).”
PMA is a potent inducer of p21^Waf1/Cip1 in a variety of different cell lines (Huang et al., 1995 Proc. Natl. Acad. Sci. US.A., 92, p. 4793-4797; Michieli et al., 1994 Cancer Res., 54, p. 3391-3395) and was employed to examine p21^Waf1/Cip1 levels after antisense transfection and confirm efficacy of translation to attenuate p21^Waf1/Cip1 levels. A431 cells were transfected with 200 nM antisense p21^Waf1/Cip1 (SEQ. ID NO.:1) or sense p21^Waf1/Cip1 oligodeoxynucleotide (SEQ. ID NO.:2). After overnight incubation in serum-free medium, the cells were stimulated with PMA (100 ng/ml) for the times indicated, lysed, and the lysates were Western blotted with p21^Waf1/Cip1 or α-actin antibody.

A10 VSM cells = assay: [3H]thymidine incorporation (DNA synthesis) in A10 VSM cells; assay type: cell-based, rat
caspase-3 = assay: Caspase-3 activation (cleavage product) by Western blot in VSM cells; assay type: cell-based, rat; details: Adriamycin experiment (FIG. 19b)
Method: FIGS. 19A and B depict how Caspase-3 is activated by antisense oligonucleotide to p21 but not early after radiation or Adriamycin, as described in Example III, infra. Confluent VSM cells were transfected with oligonucleotide in the concentration indicated, left in serum-containing media overnight, and exposed to (A) ionizing radiation (12 Gy) or (B) Adriamycin where indicated. 4 hours later, activation of caspase-3 was assessed by Western blotting. The arrowhead indicates the cleavage product of caspase-3 signifying its processing as an early step in apoptosis. Wortmannin (wort) is a positive control for apoptosis. […] The experiment shown is representative of two separate experiments.
as §2
In order to determine whether the potentiation of ionizing radiation and Adriamycin induced DNA synthesis inhibition by p21 antisense oligonucleotides is accompanied by apoptosis, caspase-3 activation in response to ionizing radiation was examined. Caspase-3 is an effector caspase whose activation (leading to apoptosis) results in a 20 kD cleavage product which can be assessed by Western blotting (McCarthy N J, Evan G I. Curr Top Dev Biol 36:259-278, 1998). This process is an early event in a cascade of reactions which ultimately leads to apoptosis, as is evident by the fact that inactivation of caspase-3 dramatically reduces apoptosis in several cell lines (Woo M, et al. Genes Dev 12:806-819, 1998).
VSM cells were transfected with antisense or control oligonucleotides overnight and then stimulated with ionizing radiation.

laminin = assay: Laminin production and secretion (immunoblot of lysate and conditioned media); assay type: cell-based, rat; details: control oligodeoxynucleotide transfected cells, TGF-β higher doses
Method: as §2, with “and/or” for “and or”, “(Weiss, R. H.;” for “(Weiss R H,”, “Am. J. Physiol. 274: C1521-C1529;” for “Am J Physiol 274:C1521-C1529,”
The p21 influences on matrix protein secretion in VSM cells were determined. Levels of the matrix proteins laminin and fibronectin were examined in both TGF-β stimulated lysate and conditioned media of cells in which p21 expression had been attenuated. The cells were transfected with either antisense p21 (SEQ. ID NO.:1) (400 nM), or random sequence control (SEQ. ID NO.:3) (400 nM) oligodeoxynucleotide, and then stimulated with TGF-β at for 0.1 to 10 ng/ml for 4 hours. Conditioned media and cell lysate were collected, and both medium and lysate volumes were normalized for the protein content in total cell lysate to exclude any skewing of the data due to cell proliferation. The proteins were electrophoresed and immunoblotted with either fibronectin (after immunoprecipitation to eliminate extraneous bands which appeared in the absence of this procedure) or laminin antibody.

fibronectin = assay: Fibronectin production and secretion (immunoprecipitation/immunoblot); assay type: cell-based, rat; details: VSM cells, TGF-β, maximal level in lysate at higher doses
Method: Immunoprecipitations: VSM cells were grown to confluence. After incubation under appropriate conditions, the cells were washed with ice-cold phosphate-buffered saline and immediately lysed in lysis buffer (20 mM Tris [pH7.5], 150 mM NaCl, 1 mM EDTA, 1 mM EGTA, 1% Triton X-100, 2.5 mM sodium pyrophosphate, 1 mM β-glycerolphosphate, 1 mM Na3VO4, 1 μg/ml Leupeptin, 1 mM PMSF) at 4° C. The cells were scraped off with a rubber spatula and the insoluble material removed by centrifuging at 10,000× g for 10 min at 4° C. Protein concentration was determined by A595, and lysates containing equal amounts of protein were incubated with […] anti-fibronectin antibody at 4° C. overnight. Protein A-Sepharose beads were added and the resulting mixture was incubated for an additional 2 hours at 4° C. The beads were centrifuged in a microfuge for 20 sec, and the pellet was washed 3 times with cold lysis buffer. The supernatant was decanted, gel loading buffer was added to the precipitate, and the solution was boiled for 5 min, and centrifuged. The supernatant was electrophoresed on a 7.5% SDS-polyacrylamide gel with equal volumes of sample per lane. The proteins were electrophoretically transferred to nitrocellulose and probed with fibronectin antibody.
The p21 influences on matrix protein secretion in VSM cells were determined. […]

With `CCCCCCCCCCCCCC(=O)O[C@@H]1[C@@H](C)[C@@]2(O)[C@@H](C=C(CO)C[C@]3(O)C(=O)C(C)=C[C@@H]23)[C@@H]2C(C)(C)[C@]12OC(C)=O` [PMA, reference compound] the “growth of A431 cells with PMA” value (A431 cells) was “significant growth inhibition” and the “p21^Waf1/Cip1 protein levels after PMA stimulation” value (p21^Waf1/Cip1 [1]; non-transfected VSM cells, PMA 100 ng/ml, between 2 and 6 hours) was “induced”.

For “5′-ATGTCCGATCCTGGTGATGTC-3′ (sense ATGTCCGATCCTGGTGATGTC; DNA, backbone not given here) [Sense p21Waf1/Cip1 control oligodeoxynucleotide, reference compound]”, the “PMA-induced p21^Waf1/Cip1 levels” value (p21^Waf1/Cip1 [2]) was “no effect”, the “PDGF-stimulated DNA synthesis, dose/response” value (A10 VSM cells; A10 VSM cells, increasing oligodeoxynucleotide concentration up to 200 nM) was “no effect” and the “PMA-induced p21^Waf1/Cip1 levels” value (p21^Waf1/Cip1 [1]; A10 VSM cells, PMA stimulation up to 6 hours after transfection) was “no effect”.

For `COc1cccc2c1C(=O)c1c(O)c3c(c(O)c1C2=O)C[C@@](O)(C(=O)CO)C[C@@H]3O[C@H]1C[C@H](N)[C@H](O)[C@H](C)O1` [Adriamycin, Adriamycin (doxorubicin), reference compound], the “growth inhibitory effect of Adriamycin (DNA synthesis)” value (A10 VSM cells; control oligonucleotide transfected VSM cells, 500 to 2000 ng/ml for 2 hours) was “plateaued”, the “p21 levels after Adriamycin exposure” value (p21^Waf1/Cip1 [1]; VSM cells, Adriamycin 500 ng/ml) was “increased” and the caspase-3 activation (caspase-3) was “little effect”.

With “TGF-β: growth factor TGF-β1 obtained from Upstate Biotechnology” the laminin secretion (laminin) was “decrease laminin secretion at higher doses”, the “DNA synthesis in serum-starved cells” value (A10 VSM cells; A10 VSM cells, TGF-β 0.1 to 10 ng/ml for 24 hours) was “significantly reduced” and the “inhibitory effect of TGF-β on DNA synthesis in transfected cells” value (A10 VSM cells; antisense or control transfected A10 VSM cells, 10% serum, TGF-β 10 ng/ml) was “still present”. For the same compound, the fibronectin production (fibronectin) was “induced fibronectin production”.
